The numbers were not newly measured in patent US8530500B2, “Stable pharmaceutical omeprazole formulation for oral administration” (Vetegen, LLC, priority 2009, dated 2013), which cites them from elsewhere.

The structures appear in SMILES notation. Values after ≈ are worked out from the molar mass of the structure shown.

Test in data set [1]: not given
The source holds these as a separate data set.

Turning to `COc1ccc2[nH]c([S+]([O-])Cc3ncc(C)c(OC)c3C)nc2c1` (stereo not shown) [omeprazole], where the note is “DMSO”, the “solubility in dimethyl sulfoxide (DMSO)” value is recorded as more than 19 mg/mL. Besides, for the setting “Polyethylene Glycol 400”, the “solubility in Polyethylene Glycol 400” value is given as 20 mg/mL (≈ 57.9 mM). The solubility in ethanol (ethanol) was 4.5 mg/mL (≈ 13 mM). The solubility in water (water) is 0.5 mg/mL (≈ 1.45 mM). In data set [1] (neutral pH), the “half-life at neutral pH” value is “about 14 hours”. Also, the “stability at pH levels above 7” value in data set [1] (pH above 7, protected from light and extremes in temperature and humidity) was “very stable”. In data set [1] (water, ethanol or acidic environments), the “stability in water, ethanol or acidic environments” value is “not very stable”.
